Test results: patent US20250120905A1, “THERAPEUTIC AGENTS TARGETING THE LYMPHATIC SYSTEM” (VIVASOR, INC, priority 2021, published 2025)

Experiments:
[1] = system: patients with RA; conditions: cited from earlier work
[2] = system: patients with moderately to severely active Rheumatoid Arthritis (RA); assay: Phase 1b study of Enbrel administered by SOFUSA: DAS28 (ESR/CRP) disease activity scores; assay type: in vivo, human; conditions: Patient 01-004; SOFUSA Enbrel 25 mg once weekly; indicative of remission
[3] = system: patients with moderately to severely active Rheumatoid Arthritis (RA); assay: Phase 1b study of Enbrel administered by SOFUSA: ACR response; assay type: in vivo, human; conditions: week 10 vs baseline (week 0); Patient 01-002 and Patient 01-004; SOFUSA Enbrel 25 mg once weekly
Description: (§1) An exemplary Sofusa Lymphatic Delivery System (SOFUSA) was designed to access the lymphatic system directly through the skin at the epidermal/dermal boundary (See FIG. 1) such that the infusion accessed afferent lymphatic capillaries when employed as described in Examples 2 and 3, below. The exemplary SOFUSA system was comprised of a microneedle device (see, e.g., FIG. 3A) and a syringe pump configured to administer anti-arthritic therapeutic agent, such as Enbrel, into the lymphatic circulation through the skin. This configuration was optimized to provide flow rates and pharmacokinetics using lymphatic anti-arthritic drug delivery in early phase clinical trials. The exemplary SOFUSA device was attached to the body of subjects via an attachment system that domed the skin upwards for consistent microneedle penetration, and a nylon strap with Velcro® that comfortably held the device down on the skin, keeping the microneedles in position until the dosing was complete (See, e.g., FIG. 2). Dose volume and infusion rate were set with an infusion pump (See, e.g., FIG. 2).
SOFUSA microneedles were arranged into an array and placed on the skin using a mechanical impact applicator. […]

[4] = system: patients with moderately to severely active Rheumatoid Arthritis (RA); assay: Phase 1b study of Enbrel administered by SOFUSA: patient/physician disease activity and pain Visual Analog Scale; assay type: in vivo, human; conditions: for Patient Assessment of Pain (VAS) decrease / Patient Global Assessment of Disease Activity (VAS) decrease / Physician Global Assessment of Disease Activity (VAS) decrease: SOFUSA Enbrel 25 mg once weekly for 12 weeks
Description: as §1
(§2) SOFUSA microneedles were arranged into an array and placed on the skin using a mechanical impact applicator. A solution comprising Enbrel at a concentration of approximately 50 milligrams per milliliter (50 mg/mL) was then administered at a controlled infusion rate into the device, through the microneedles and into the skin using an external syringe pump. The solution comprising Enbrel was delivered into the body at an infusion rate of 0.5 milliliters per hour (mL/hr), which corresponded to an infusion period of one hour to deliver a 25 mg dose and 2 hours to deliver a 50 mg dose.
(§3) In this ongoing Phase 1b study, 25 mg of Enbrel (50% of the non-SOFUSA delivered subcutaneous dose) was administered lymphatically once weekly via SOFUSA to patients for 12 weeks. The study design calls for an increase in the SOFUSA-administered Enbrel dose to 50 mg during the dose escalation phase of the study (weeks 4-8) provided that dose escalation criteria are met. Patients remain on either the 25 mg or 50 mg dose for the final maintenance phase of the study. The dose escalation criteria for the Enbrel dose to be increased from 25 mg to 50 mg are: a DAS28 (ESR)≥3.2 and an increase in DAS28 (ESR)>0.6 compared to baseline.
(§4) Patients entered in the study had been treated with subcutaneous Enbrel with or without continuation of MTX, and have had either a primary (lack of sufficient efficacy with initial treatment) or secondary (initial efficacy but became inefficacious over time) inadequate response with the maximum approved dose of Enbrel. […] To the extent that inadequate response to Enbrel in some patients may be due to insufficient Enbrel levels in target lymphoid tissues or an inadequate immunologic response, Enbrel administered into the lymphatic system via SOFUSA was therefore theorized to provide a favorable clinical response despite an inadequate response to subcutaneous Enbrel administration.
(§5) This patient received SOFUSA-administered Enbrel at a 25 mg dosage once weekly for 12 weeks. Each week, SOFUSA was applied to the dorsal forearm with alternating left and right arm locations and the SOFUSA-administered Enbrel solution was infused through the skin into the lymphatic circulation for one hour.
Ratings were performed by each patient and physician on a Visual Analog Scale (VAS) every 2 weeks for disease activity (patient and physician) and disease-related pain (patient). […] In addition, the Patient Assessment of Pain for Patient ID 01-002 decreased from 46 mm at week 0 to 29 mm at week 12 (i.e., 37.0% decrease). The Physician Global Assessment of Disease Activity for Patient ID 01-002 decreased substantially from 50 mm at week 0 to 15 mm at week 12, corresponding to a 70.0% decrease in disease activity.

[5] = Etanercept lymph node concentrations after IV, SC, ID or lymphatic (Sofusa) delivery; assay type: in vivo; conditions: for etanercept concentration in lymph nodes, lymphatic (Sofusa) vs IV administration: percentage initial dose per gram of lymph tissue
Experimental: Etanercept was administered to subjects either via intravenous (IV), subcutaneous (SC), Intradermal (ID), or lymphatic (Sofusa) delivery. Average etanercept concentrations (expressed as percentage initial dose per gram of lymph tissue) in lymph node tissue was then determined at twelve and 36 hours post-administration. […] In particular, etanercept concentrations at 12 hours post lymphatic (Sofusa) administration were approximately 40-fold greater, and approximately 9-fold greater at 36 hours, than etanercept concentrations administered via IV.
Methods and procedures for some of these experiments have been adapted from Aldrich, et al., Arthritis Res. Ther., (2017), 19:116 (DOI 10.1186/s13075-017-1323-z; Open Access) which is incorporated by reference herein in its entirety for all purposes.

[6] = system: patients with moderately to severely active Rheumatoid Arthritis (RA); assay: Phase 1b study of Enbrel administered by SOFUSA: tender and swollen joint counts; assay type: in vivo, human
Description: as §1, §2, §3, §4, §5
Joint counts were performed every 2 weeks. There was observed a consistent decrease in the number of tender and swollen joints using both 66/68 and 28 joint count criteria for the entire 12-week dosing period (See FIG. 5A and FIG. 5B, respectively).

[7] = system: patients with moderately to severely active Rheumatoid Arthritis (RA); assay: Phase 1b study of Enbrel administered by SOFUSA: DAS28 (ESR/CRP) disease activity scores; assay type: in vivo, human; conditions: Patient ID 01-002
Description: as §1, §2, §3, §4, §5
Disease Activity Scores (DAS) 28 (DAS28) DAS28) were calculated based on 28 tender and swollen joints, Patient Global Assessment of Disease Activity, and C-Reactive Protein (CRP) or Erythrocyte Sedimentation Rate (ESR). DAS28 (ESR) and DAS28 (CRP) scores for Patient ID 01-002 are shown in FIG. 4A and FIG. 4B, respectively.

[8] = system: local lymphatic function; assay: Near-Infrared Fluorescence (NIRF) lymphatic imaging with Indocyanine Green; assay type: in vivo, human
Experimental: The local lymphatic function was measured using Near-Infrared Fluorescence (NIRF) imaging techniques with Indocyanine Green (ICG) at the beginning, at 6 weeks, and at the end of the study. […] The ICG was delivered at the opposite arm location as the Enbrel dosing.
In this regard, it has been speculated that lymphatic dysfunction may encourage the development of rheumatic autoimmune diseases such as scleroderma, lupus, and rheumatoid arthritis (see, e.g., Aletaha, D., et al., Ann. Rheum. Dis., 75, 1479-1485 (2016)). […] NIRF imaging of the lymphatics after infusion of a solution of ICG at the beginning, middle and end of the study. NIRF imaging was used to assess lymphatic pumping in RA patients before and after treatment with SOFUSA with Enbrel. Additionally, the imaging provided a visualization of the lymphatic vessels and was intended to confirm that SOFUSA delivers ICG solution directly into the lymphatics.

[9] = Patient 01-002, by week 12 of the study
[10] = Patient ID 01-002, SOFUSA Enbrel 25 mg once weekly
[11] = Patient ID 01-002, before SOFUSA dosing
[12] = Patient ID 01-002, week 0 to week 12, SOFUSA Enbrel 25 mg once weekly
[13] = Patient ID 01-002 (FIG. 5), week 0 to week 12, SOFUSA Enbrel 25 mg once weekly
[14] = Patient ID 01-004, SOFUSA Enbrel 25 mg once weekly for 12 weeks
[15] = Patient ID 01-006, SOFUSA Enbrel 25 mg once weekly for 12 weeks
[16] = before SOFUSA dosing, inadequate response to weekly 50 mg Enbrel subcutaneous

etanercept [Enbrel]
efficacy response rate, ACR70 ([1]; Enbrel in combination with MTX, delivered systemically): < 50% | patients achieving ACR70 ([1]; Enbrel plus MTX, at 3 and 6 months, Enbrel prescribing information): 15% | DAS28 (ESR) at week 10 [2]: 2.10 | ACR 50% response [3]: achieved | Patient Assessment of Pain (VAS) decrease (ACR response section) [4, 9]: 69.6% | Patient Global Assessment of Disease Activity (VAS) decrease (ACR response section) [4, 9]: 63.5% | Physician Global Assessment of Disease Activity (VAS) decrease (ACR response section) [4, 9]: 50.0% | Patient Assessment of Pain (VAS) at week 12 [4, 10]: 29 mm | Patient Global Assessment of Disease Activity (VAS, 100 mm) at week 12 [4, 10]: 21 mm | Physician Global Assessment of Disease Activity (VAS) at week 12 [4, 10]: 15 mm | Patient Assessment of Pain (VAS) at week 0 [4, 11]: 46 mm | Patient Global Assessment of Disease Activity (VAS, 100 mm) at week 0 [4, 11]: 52 mm | Physician Global Assessment of Disease Activity (VAS) at week 0 [4, 11]: 50 mm | Patient Assessment of Pain, decrease [4, 12]: 37.0% | Patient Global Assessment of Disease Activity, overall reduction [4, 12]: 59.6% | Physician Global Assessment of Disease Activity, decrease [4, 12]: 70.0% | Patient Assessment of Pain (VAS) decrease ([4]; Patient ID 01-004): 100.0% | Patient Global Assessment of Disease Activity (VAS) decrease ([4]; Patient ID 01-004): 46.7% | Physician Global Assessment of Disease Activity (VAS) decrease ([4]; Patient ID 01-004): 85.4% | Patient Global Assessment of Disease Activity (VAS) decrease at week 10 ([4]; Patient ID 01-004, week 10 of the study): 73.3% | Patient Assessment of Pain (VAS) decrease ([4]; Patient ID 01-006): 98.9% | Patient Global Assessment of Disease Activity (VAS) decrease ([4]; Patient ID 01-006): 97.1% | Physician Global Assessment of Disease Activity (VAS) decrease ([4]; Patient ID 01-006): 75.4% | etanercept concentration in lymph nodes, lymphatic delivery compared to all other tested delivery routes (IV, SC, ID) ([5]; 12 and 36 hours post-administration, FIG. 12): far greater | etanercept concentration in lymph nodes, lymphatic (Sofusa) vs IV administration ([5]; 12 hours post administration): approximately 40 fold | etanercept concentration in lymph nodes, lymphatic (Sofusa) vs IV administration ([5]; 36 hours post administration): approximately 9 fold | SJC66 decrease (ACR response section) [6, 9]: 55.6% | TJC68 decrease (ACR response section) [6, 9]: 58.8% | decrease in number of swollen joints, 28-Joint Count [6, 13]: 28.6% | decrease in number of swollen joints, full 66-Joint Count [6, 13]: 44.4% | decrease in number of tender joints, 28 Joint Count [6, 13]: 90.9% | decrease in number of tender joints, full 68-Joint Count [6, 13]: 70.6% | SJC66 decrease [6, 14]: 66.7% | TJC68 decrease [6, 14]: 60.0% | SJC66 change [6, 15]: unchanged | TJC68 decrease [6, 15]: 70.6% | DAS28 (ESR) at week 12 ([7]; SOFUSA Enbrel 25 mg once weekly, baseline 4.58): 3.02 | DAS28 (CRP) at Week 12 ([7]; SOFUSA Enbrel 25 mg once weekly, baseline 4.99): 3.12 | DAS28 (ESR) decrease from baseline ([7]; SOFUSA Enbrel 25 mg once weekly, week 12 vs baseline 4.58): 34.1% | DAS28 (CRP) decrease from baseline ([7]; SOFUSA Enbrel 25 mg once weekly, week 12 vs baseline 4.99): 37.5% | DAS28 (ESR) at Week 10 (lowest achieved) ([7]; after 10 weekly 25 mg SOFUSA Enbrel doses, level of remission): 2.10 | DAS28 (CRP) at baseline [7, 16]: 4.99 | DAS28 (CRP) at screening [7, 16]: 4.94 | DAS28 (ESR) at baseline [7, 16]: 4.58 | DAS28 (ESR) at screening [7, 16]: 4.62 | lymphatic pump rate at week 0 ([8]; week 0, before SOFUSA treatment, ICG at opposite arm): less than 0.5 pumps per minute | lymphatic vessels visible by NIRF imaging at week 6 ([8]; week 6, after 6 SOFUSA Enbrel doses, vs week 0 (very few vessels visible)): significantly more lymphatic vessels could be imaged | lymphatic pump rate at week 6 ([8]; week 6, after 6 SOFUSA Enbrel doses, ICG at opposite arm): greater than 2 pumps per minute
